Source: patent publication US20130143929A1, “FUNGICIDAL IMIDAZOLES” (EI DU PONT DE NEMOURS AND COMPANY, priority 2010, published 2013)
Marks after values point to notes of the source that are not given here.

Assays:
Format in all cases: in vivo
[1] = test system: Puccinia recondite f. sp. tritici (the causal agent of wheat leaf rust); test: Test A: wheat leaf rust, preventive spray on wheat seedlings, visual disease rating; conditions: wheat leaf rust, preventive spray on wheat seedlings
Procedure, shortened: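 Wheat seedlings were sprayed to run-off with compound suspended in acetone/water containing 250 ppm Trem 014 (200 ppm ≈ 800 g/ha; some at 40 ppm). Puccinia recondite spores were inoculated the next day. Plants were held 24 h saturated at 20° C, then 7 days at 20° C, and disease control was rated visually on a 0–100 scale against controls.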

[2] = test system: Septoria tritici (the causal agent of wheat leaf blotch); test: Test B: wheat leaf blotch, preventive spray on wheat seedlings, visual disease rating; conditions: wheat leaf blotch, preventive spray on wheat seedlings; asterisk: 40 ppm test suspension
Procedure, shortened: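 Wheat seedlings sprayed to run-off with compound suspension (acetone/water with 250 ppm Trem 014; 200 ppm ≈ 800 g/ha, some at 40 ppm), inoculated next day with Septoria tritici spores. 48 h saturated humidity at 24 °C, then 19 days at 20 °C; visual rating, 100 = full control.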

[3] = test system: Botrytis cinerea (the causal agent of tomato Botrytis); test: Test C: tomato Botrytis, preventive spray on tomato seedlings, visual disease rating; conditions: tomato Botrytis, preventive spray on tomato seedlings; asterisk: 40 ppm test suspension
Procedure, shortened: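 Test suspension (acetone/water with 250 ppm Trem 014; 200 ppm equivalent to 800 g/ha) sprayed to run-off on tomato seedlings; B. cinerea spores inoculated next day. After 48 h saturated humidity at 20° C then 3 days at 24° C, disease rated visually as % control relative to untreated controls (0–100).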

[4] = test system: Blumeria graminis f. sp. tritici (also known as Erysiphe graminis f. sp. tritici, the causal agent of wheat powdery mildew); test: Test D: wheat powdery mildew, preventive spray on wheat seedlings, visual disease rating; conditions: wheat powdery mildew, preventive spray on wheat seedlings; asterisk: 40 ppm test suspension
Procedure, shortened: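 Compound suspended in acetone/water (50/50) with 250 ppm Trem 014 and sprayed to run-off on wheat seedlings (200 ppm ≈ 800 g/ha), then inoculated next day with spore dust. Disease rated visually after 8 days at 20 °C as % control relative to untreated plants (0-100).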

[5] = asterisk: 40 ppm test suspension

## COc1ccc(C(O)c2c(C)nc(Cl)n2-c2c(F)cccc2Cl)c(F)c1 (stereo not drawn) [compound 210]
[1]; no asterisk (standard test suspension concentration, not 40 ppm)
  Test A rating (100 = 100% disease control, 0 = no disease control relative to the controls): 100%
[2]
  Test B rating (100 = 100% disease control, 0 = no disease control relative to the controls): 100* %
[3]
  Test C rating (100 = 100% disease control, 0 = no disease control relative to the controls): 100* %
[4]
  Test D rating (100 = 100% disease control, 0 = no disease control relative to the controls): 99* %

## COc1ccc(C(O)c2c(C)nc(Cl)n2-c2c(F)cccc2Br)c(F)c1 (stereo not drawn) [compound 211]
[1]; [5]
  Test A rating (100 = 100% disease control, 0 = no disease control relative to the controls): 100* %
[2]
  Test B rating (100 = 100% disease control, 0 = no disease control relative to the controls): 100* %
[3]
  Test C rating (100 = 100% disease control, 0 = no disease control relative to the controls): 100* %
[4]
  Test D rating (100 = 100% disease control, 0 = no disease control relative to the controls): 98* %

## COc1ccc(C(O)c2c(C)nc(Cl)n2-c2c(F)cccc2Cl)c(C)c1 (stereo not drawn) [compound 212]
[1]; [5]
  Test A rating (100 = 100% disease control, 0 = no disease control relative to the controls): 100* %
[2]
  Test B rating (100 = 100% disease control, 0 = no disease control relative to the controls): 100* %
[3]
  Test C rating (100 = 100% disease control, 0 = no disease control relative to the controls): 100* %
[4]
  Test D rating (100 = 100% disease control, 0 = no disease control relative to the controls): 97* %

## COc1ccc(C(O)c2c(C)nc(Cl)n2-c2c(F)cccc2Br)c(C)c1 (stereo not drawn) [compound 213]
[1]; [5]
  Test A rating (100 = 100% disease control, 0 = no disease control relative to the controls): 100* %
[2]
  Test B rating (100 = 100% disease control, 0 = no disease control relative to the controls): 100* %
[3]
  Test C rating (100 = 100% disease control, 0 = no disease control relative to the controls): 100* %
[4]
  Test D rating (100 = 100% disease control, 0 = no disease control relative to the controls): 91* %

## COc1ccc(-n2c(C(O)c3ccc(F)cc3Cl)cnc2C)c(OC)c1 (stereo not drawn) [compound 214]
[1]; [5]
  Test A rating (100 = 100% disease control, 0 = no disease control relative to the controls): 0* %
[2]
  Test B rating (100 = 100% disease control, 0 = no disease control relative to the controls): 0* %
[3]
  Test C rating (100 = 100% disease control, 0 = no disease control relative to the controls): 0* %
[4]
  Test D rating (100 = 100% disease control, 0 = no disease control relative to the controls): 0* %

## COc1ccc(C(O)c2c(Br)nc(C)n2-c2ccc(F)cc2Cl)c(F)c1 (stereo not drawn) [compound 302]
[1]; [5]
  Test A rating (100 = 100% disease control, 0 = no disease control relative to the controls): 100* %
[2]
  Test B rating (100 = 100% disease control, 0 = no disease control relative to the controls): 100* %
[3]
  Test C rating (100 = 100% disease control, 0 = no disease control relative to the controls): 100* %
[4]
  Test D rating (100 = 100% disease control, 0 = no disease control relative to the controls): 64* %

## COc1ccc(C(O)c2cnc(C)n2-c2ccc(F)cc2Br)c(F)c1 (stereo not drawn) [compound 303]
[1]; [5]
  Test A rating (100 = 100% disease control, 0 = no disease control relative to the controls): 74* %
[2]
  Test B rating (100 = 100% disease control, 0 = no disease control relative to the controls): 43* %
[3]
  Test C rating (100 = 100% disease control, 0 = no disease control relative to the controls): 8* %
[4]
  Test D rating (100 = 100% disease control, 0 = no disease control relative to the controls): 0* %

## Cc1ncc(C(O)c2c(F)cc(Cl)cc2F)n1-c1ccc(F)cc1Br (stereo not drawn) [compound 305]
[1]; [5]
  Test A rating (100 = 100% disease control, 0 = no disease control relative to the controls): 9* %
[2]
  Test B rating (100 = 100% disease control, 0 = no disease control relative to the controls): 17* %
[3]
  Test C rating (100 = 100% disease control, 0 = no disease control relative to the controls): 21* %
[4]
  Test D rating (100 = 100% disease control, 0 = no disease control relative to the controls): 0* %

## COc1ccc(C(O)c2c(Cl)nc(C)n2-c2ccc(F)cc2F)c(F)c1 (stereo not drawn) [compound 306]
[1]; [5]
  Test A rating (100 = 100% disease control, 0 = no disease control relative to the controls): 100* %
[2]
  Test B rating (100 = 100% disease control, 0 = no disease control relative to the controls): 100* %
[3]
  Test C rating (100 = 100% disease control, 0 = no disease control relative to the controls): 97* %
[4]
  Test D rating (100 = 100% disease control, 0 = no disease control relative to the controls): 0* %

## COc1ccc(C(O)c2c(Cl)nc(C)n2-c2ccc(F)cc2F)c(Cl)c1 (stereo not drawn) [compound 307]
[1]; [5]
  Test A rating (100 = 100% disease control, 0 = no disease control relative to the controls): 99* %
[2]
  Test B rating (100 = 100% disease control, 0 = no disease control relative to the controls): 100* %
[3]
  Test C rating (100 = 100% disease control, 0 = no disease control relative to the controls): 0* %
[4]
  Test D rating (100 = 100% disease control, 0 = no disease control relative to the controls): 0* %

## Cc1nc(Br)c(C(O)c2c(F)cc(Cl)cc2F)n1-c1ccc(F)cc1Br (stereo not drawn) [compound 308]
[1]; [5]
  Test A rating (100 = 100% disease control, 0 = no disease control relative to the controls): 100* %
[2]
  Test B rating (100 = 100% disease control, 0 = no disease control relative to the controls): 100* %
[3]
  Test C rating (100 = 100% disease control, 0 = no disease control relative to the controls): 100* %
[4]
  Test D rating (100 = 100% disease control, 0 = no disease control relative to the controls): 93* %

## Cc1nc(Br)c(C(O)c2ccc(F)cc2Br)n1-c1ccc(F)cc1F (stereo not drawn) [compound 309]
[1]; [5]
  Test A rating (100 = 100% disease control, 0 = no disease control relative to the controls): 100* %
[2]
  Test B rating (100 = 100% disease control, 0 = no disease control relative to the controls): 100* %
[3]
  Test C rating (100 = 100% disease control, 0 = no disease control relative to the controls): 65* %
[4]
  Test D rating (100 = 100% disease control, 0 = no disease control relative to the controls): 64* %
